Measured values published in patent publication US9890147B2 (BAYER PHARMA AKTIENGESELLSCHAFT, priority 2012, dated 2018).

Key:
MOLM-13 cells = experiment: Cell proliferation assay (alamarBlue), MOLM-13; type: cell-based; settings: Homo sapiens, 96 hours incubation, inhibition of cell proliferation
Method in brief: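 Cells in RPMI1640/10% FCS read by alamarBlue fluorescence (ex 530, em 590 nm) after overnight 37 °C incubation, then treated at 1E-5 to 1E-8 M for 96 h. Pre-treatment values subtracted from endpoint values and compared with buffer-only wells; IC50 is 50% proliferation inhibition.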

BRD4 (BD1) = biological target: T1, BRD4 (BD1) (Homo sapiens, UniProt O60885); experiment: Binding assay BRD4/acetylated peptide H4 (TR-FRET protein-protein interaction assay)
T1 construct: with relatively long constructs also being possible, preferably amino acids 44-168; made in house; host or cells: E. coli
Method in brief: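 His6-BRD4 BD1 (aa 67-152, E. coli), usually 10 nM, with biotinylated tetra-acetylated H4 peptide in HEPES pH 7.5 buffer; 11 compound concentrations 0.1 nM–20 μM in duplicate, 10 min preincubation, 1 h at 22 °C then ≥3 h at 4 °C. TR-FRET 665/620 ratio; IC50 by 4-parameter fit.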

Row | Structure (SMILES) | IC50 (MOLM-13 cells) | IC50 (BRD4 (BD1))
1 | CNC(=O)N1N=C(c2ccc(-c3c(C)noc3C)cc2)c2cc(N3CCOCC3)ccc2CC1C (racemic) [Example 176, (±)-1-[4-(3,5-Dimethylisoxazol-4-yl)phenyl]-N,4-dimethyl-8-(morpholin-4-yl)-4,5-dihydro-3H-2,3-benzodiazepine-3-carboxamide] | 520 nM | 40 nM
2 | CNC(=O)N1N=C(c2ccc(N3CCC(OC)CC3)cc2)c2cc(OC)c(OC)cc2C[C@@H]1C [Example 179.2, (4S)-7,8-dimethoxy-1-[4-(4-methoxypiperidin-1-yl)phenyl]-N,4-dimethyl-4,5-dihydro-3H-2,3-benzodiazepine-3-carboxamide] | 80 nM | 40 nM
3 | CNC(=O)N1N=C(c2ccc(N3CCN(C)CC3)cc2)c2cc(OC)c(OC)cc2C[C@H]1C [Example 127.2, (4R)-7,8-dimethoxy-N,4-dimethyl-1-[4-(4-methylpiperazin-1-yl)phenyl]-4,5-dihydro-3H-2,3-benzodiazepine-3-carboxamide] | > 10000 nM | 8800 nM
4 | CNC(=O)N1N=C(c2ccc(N3CCN(C)CC3)cc2)c2cc(OC)c(OC(F)(F)F)cc2CC1C (racemic) [Example 219, (±)-8-methoxy-N,4-dimethyl-1-[4-(4-methylpiperazin-1-yl)phenyl]-7-(trifluoromethoxy)-4,5-dihydro-3H-2,3-benzodiazepine-3-carboxamide] | 570 nM | 370 nM
5 | CNC(=O)N1N=C(c2ccc(N3CCN(CC(F)F)CC3)cc2)c2cc(OC)c(OC)cc2CC1C (racemic) [Example 193, (±)-1-{4-[4-(2,2-difluoroethyl)piperazin-1-yl]phenyl}-7,8-dimethoxy-N,4-dimethyl-4,5-dihydro-3H-2,3-benzodiazepine-3-carboxamide] | 110 nM | 90 nM
6 | CNC(=O)N1N=C(c2ccc(Cl)cc2)c2ccc(-c3cn(C)nn3)cc2CC1C (racemic) [Example 243, (±)-1-(4-chlorophenyl)-N,4-dimethyl-7-(1-methyl-1H-1,2,3-triazol-4-yl)-4,5-dihydro-3H-2,3-benzodiazepine-3-carboxamide] | 340 nM | 320 nM
7 | CNC(=O)N1N=C(c2ccc(-c3cnccc3C)cc2)c2cc(OC)c(OC)cc2CC1C (racemic) [Example 82, (±)-7,8-dimethoxy-N,4-dimethyl-1-[4-(4-methylpyridin-3-yl)phenyl]-4,5-dihydro-3H-2,3-benzodiazepine-3-carboxamide] | 550 nM | 80 nM
8 | CNC(=O)N1N=C(c2ccc(N3CCCC3=O)cc2)c2cc(OC)c(OC)cc2CC1C (racemic) [Example 39, (±)-7,8-dimethoxy-N,4-dimethyl-1-[4-(2-oxopyrrolidin-1-yl)phenyl]-4,5-dihydro-3H-2,3-benzodiazepine-3-carboxamide] | 700 nM | 80 nM
9 | CNC(=O)N1N=C(c2cccc(N3CCC3)c2)c2cc(OC)c(OC)cc2CC1C (racemic) [Example 142, (±)-1-[3-(azetidin-1-yl)phenyl]-7,8-dimethoxy-N,4-dimethyl-4,5-dihydro-3H-2,3-benzodiazepine-3-carboxamide] | 680 nM | 100 nM
10 | CNC(=O)N1N=C(c2ccc(-c3c(C)nn(C)c3C)cc2)c2cc(OC)c(OC)cc2C[C@H]1C [Example 51.1, (4R)-7,8-dimethoxy-N,4-dimethyl-1-[4-(1,3,5-trimethyl-1H-pyrazol-4-yl)phenyl]-4,5-dihydro-3H-2,3-benzodiazepine-3-carboxamide] | > 10000 nM | 1860 nM
11 | CNC(=O)N1N=C(c2ccc(F)c(-c3cnn(C)c3)c2)c2cc(OC)c(OC)cc2CC1C (racemic) [Example 57, (±)-1-[4-fluoro-3-(1-methyl-1H-pyrazol-4-yl)phenyl]-7,8-dimethoxy-N,4-dimethyl-4,5-dihydro-3H-2,3-benzodiazepine-3-carboxamide] | 790 nM | 90 nM
12 | CNC(=O)N1N=C(c2ccc(N3CCC(N(C)C)CC3)cc2)c2cc(OC)c(OC)cc2CC1C (racemic) [Example 180, (±)-1-{4-[4-(dimethylamino)piperidin-1-yl]phenyl}-7,8-dimethoxy-N,4-dimethyl-4,5-dihydro-3H-2,3-benzodiazepine-3-carboxamide] | 370 nM | 70 nM
13 | CNC(=O)N1N=C(c2ccc(N3CCCN(C)CC3=O)cc2)c2cc(OC)c(OC)cc2CC1C (racemic) [Example 37, (±)-7,8-dimethoxy-N,4-dimethyl-1-[4-(4-methyl-2-oxo-1,4-diazepan-1-yl)phenyl]-4,5-dihydro-3H-2,3-benzodiazepine-3-carboxamide] | 1130 nM | 120 nM
14 | CNC(=O)N1N=C(c2ccc(N3CCN(CCO)CC3)cc2)c2ccc(OC(F)(F)F)cc2CC1C (racemic) [Example 218, (±)-1-{4-[4-(2-hydroxyethyl)piperazin-1-yl]phenyl}-N,4-dimethyl-7-(trifluoromethoxy)-4,5-dihydro-3H-2,3-benzodiazepine-3-carboxamide] | 300 nM | 880 nM
15 | CNC(=O)N1N=C(c2ccc(N3CCCOC3=O)cc2)c2cc(OC)c(OC)cc2CC1C (racemic) [Example 38, (±)-7,8-dimethoxy-N,4-dimethyl-1-[4-(2-oxo-1,3-oxazinan-3-yl)phenyl]-4,5-dihydro-3H-2,3-benzodiazepine-3-carboxamide] | 730 nM | 120 nM
16 | CNC(=O)N1N=C(c2ccc(N3CCOC(C)C3=O)cc2)c2cc(OC)c(OC)cc2CC1C (racemic) [Example 42, (±)-7,8-dimethoxy-N,4-dimethyl-1-[4-(2-methyl-3-oxomorpholin-4-yl)phenyl]-4,5-dihydro-3H-2,3-benzodiazepine-3-carboxamide] | 1290 nM | 200 nM
17 | CNC(=O)N1N=C(c2ccc(-c3c(C)noc3C)cc2)c2cc(OC(F)(F)F)c(Cl)cc2C[C@H]1C [Example 156.2, (4R)-7-Chloro-1-[4-(3,5-dimethylisoxazol-4-yl)phenyl]-N,4-dimethyl-8-(trifluoromethoxy)-4,5-dihydro-3H-2,3-benzodiazepine-3-carboxamide] | > 10000 nM | 2240 nM
18 | CCC1Cc2cc(OC)c(OC)cc2C(c2ccc(-c3cn(C)nn3)cc2)=NN1C(=O)NC (racemic) [Example 222, (±)-4-ethyl-7,8-dimethoxy-N-methyl-1-[4-(1-methyl-1H-1,2,3-triazol-4-yl)phenyl]-4,5-dihydro-3H-2,3-benzodiazepine-3-carboxamide] | 2120 nM | 960 nM
19 | CNC(=O)N1N=C(c2ccc(-c3c(C)noc3C)cc2)c2cc(NC(C)=O)ccc2CC1C (racemic) [Example 173, (±)-8-Acetamido-1-[4-(3,5-dimethylisoxazol-4-yl)phenyl]-N,4-dimethyl-4,5-dihydro-3H-2,3-benzodiazepine-3-carboxamide] | 1210 nM | 180 nM

The remaining lines, values ahead:

Row | IC50 (MOLM-13 cells) | IC50 (BRD4 (BD1)) | Structure (SMILES)
20 | 270 nM | 30 nM | CNC(=O)N1N=C(c2ccc(-c3cccc(C(=O)NC4CC4)c3)cc2)c2cc(OC)c(OC)cc2CC1C (racemic) [Example 99, (±)-1-[3′-(cyclopropylcarbamoyl)-biphenyl-4-yl]-7,8-dimethoxy-N,4-dimethyl-4,5-dihydro-3H-2,3-benzodiazepine-3-carboxamide]
21 | 960 nM | 90 nM | CNC(=O)N1N=C(c2ccc(-c3ccc([N+](=O)[O-])cc3)cc2)c2cc(OC)c(OC)cc2CC1C (racemic) [Example 102, (±)-7,8-dimethoxy-N,4-dimethyl-1-(4′-nitrobiphenyl-4-yl)-4,5-dihydro-3H-2,3-benzodiazepine-3-carboxamide]
22 | 380 nM | 50 nM | CNC(=O)N1N=C(c2ccc(-c3ccc(C)nc3)cc2)c2cc(OC)c(OC)cc2CC1C (racemic) [Example 117, (±)-7,8-dimethoxy-N,4-dimethyl-1-[4-(6-methylpyridin-3-yl)phenyl]-4,5-dihydro-3H-2,3-benzodiazepine-3-carboxamide]
23 | 650 nM | 60 nM | CNC(=O)N1N=C(c2ccc(-c3ccc(F)cc3)cc2)c2cc(OC)c(OC)cc2CC1C (racemic) [Example 62, (±)-1-(4′-fluorobiphenyl-4-yl)-7,8-dimethoxy-N,4-dimethyl-4,5-dihydro-3H-2,3-benzodiazepine-3-carboxamide]
24 | 660 nM | 210 nM | CNC(=O)N1N=C(c2ccc(-c3ccccc3C)cc2)c2cc(OC)c(OC)cc2CC1C (racemic) [Example 72, (±)-7,8-dimethoxy-N,4-dimethyl-1-(2′-methylbiphenyl-4-yl)-4,5-dihydro-3H-2,3-benzodiazepine-3-carboxamide]
25 | 300 nM | 40 nM | CNC(=O)N1N=C(c2ccc(-c3cccc(S(N)(=O)=O)c3)cc2)c2cc(OC)c(OC)cc2CC1C (racemic) [Example 114, (±)-7,8-dimethoxy-N,4-dimethyl-1-(3′-sulphamoylbiphenyl-4-yl)-4,5-dihydro-3H-2,3-benzodiazepine-3-carboxamide]
26 | 1420 nM | 40 nM | CNC(=O)N1N=C(c2ccc(-c3cccc(C(=O)NCCN(C)C)c3)cc2)c2cc(OC)c(OC)cc2CC1C (racemic) [Example 113, (±)-1-(3′-{[2-(dimethylamino)ethyl]carbamoyl}biphenyl-4-yl)-7,8-dimethoxy-N,4-dimethyl-4,5-dihydro-3H-2,3-benzodiazepine-3-carboxamide]
27 | 490 nM | 40 nM | CNC(=O)N1N=C(c2ccc(-c3cccc(C(N)=O)c3)cc2)c2cc(OC)c(OC)cc2CC1C (racemic) [Example 77, (±)-1-(3′-carbamoylbiphenyl-4-yl)-7,8-dimethoxy-N,4-dimethyl-4,5-dihydro-3H-2,3-benzodiazepine-3-carboxamide]
